For this experiment, the target named is T1, human cathepsin K (Homo sapiens, UniProt P43235).
T1 construct: Dr. Boris Turk (Josef Stefan Institute, Ljubljana, Slovenia)
T1 sequence (P43235 115-329): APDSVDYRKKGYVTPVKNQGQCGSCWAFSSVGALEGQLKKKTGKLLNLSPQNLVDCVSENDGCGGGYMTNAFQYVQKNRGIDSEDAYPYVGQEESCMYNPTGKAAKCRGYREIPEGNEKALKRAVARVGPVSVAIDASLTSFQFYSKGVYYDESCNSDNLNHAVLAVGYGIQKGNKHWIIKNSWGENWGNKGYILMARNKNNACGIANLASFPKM
Description: Cathepsin K peptidase activity assay (Ki). Type of experiment: biochemical. Conditions: Table 5. As to the method:
Unless otherwise stated, all general chemicals and biochemicals were purchased from either the Sigma Chemical Company, Poole, Dorset, U.K or from Fisher Scientific UK, Loughborough, Leicestershire, U.K. Absorbance assays were carried out in flat-bottomed 96-well plates (Spectra; Greiner Bio-One Ltd., Stonehouse, Gloucestershire, U.K.) using a SpectraMax PLUS384 plate reader (Molecular Devices, Crawley, U.K.). […] Fluorescence assays were monitored using a SpectraMax Gemini fluorescence plate reader (Molecular Devices). For substrates employing either a 7-amino-4-methylcoumarin (AMC) or a 7-amino-4-trifluoromethylcoumarin (AFC) fluorophore, assays were monitored at an excitation wavelength of 365 nm and an emission wavelength of 450 nm and the fluorescence plate reader calibrated with AMC. For substrates employing a 3-amino-benzoyl (Abz) fluorophore, assays were monitored at an excitation wavelength of 310 nm and an emission wavelength of 445 nm; the fluorescence plate reader calibrated with 3-amino-benzamide (Fluka). Unless otherwise indicated, all the peptidase substrates were purchased from Bachem UK, St Helens, Merseyside, UK. […] Hydroxyethylpiperazine ethanesulfonate (HEPES), tris-hydroxylmethyl aminomethane (tris) base, bis-tris-propane and all the biological detergents (e.g. CHAPS, zwittergents, etc.) were purchased from CN Biosciences UK, Beeston, Nottinghamshire, U.K. Glycerol was purchased from Amersham Pharmacia Biotech, Little Chalfont, Buckinghamshire, U.K. Stock solutions of substrate or inhibitor were made up to 10 mM in 100% dimethylsulfoxide (DMSO) (Rathburns, Glasgow, U.K.) and diluted as appropriately required. In all cases the DMSO concentration in the assays was maintained at less than 1% (vol./vol.).
Enzyme was added as required to initiate the reaction and the activity, as judged by the change in fluorescence upon conversion of substrate to product, was monitored over time. All assays were carried out at 25±1° C.
Bovine cathepsin S, human cathepsin L, human cathepsin H and human cathepsin B were obtained from CN Biosciences. Recombinant human cathepsin S, human cathepsin K and human cathepsin X were obtained from Dr. Boris Turk (Josef Stefan Institute, Ljubljana, Slovenia). Unless otherwise stated, all peptidase activity assays were carried out in 10 mM bis-tris-propane (BTP), pH 6.5 containing 1 mM EDTA, 5 mM 2-mercaptoethanol and 1 mM CaCl2.
The apparent inhibition constant (Ki) for each compound was determined on the basis that inhibition was reversible and occurred by a pure-competitive mechanism. […] [formula]
[formula] Ki^app=Ki(1+[So]/KM^app) (4)
Curves were fitted by non-linear regression analysis (Prism) using a fixed value for the enzyme concentration.

Structures are written as SMILES.

For the compound `O=C(N[C@@H](CC1CCCCC1)C(=O)N1CC[C@@H]2[C@H]1C(=O)CN2C(=O)c1ccccc1)c1ccsc1` [Example 250, (3aR,6aS)-Thiophene-3-carboxylic acid [(1S)-2-(4-benzoyl-6-oxo-hexahydro-pyrrolo[3,2-b]pyrrole-1-yl)-1-cyclohexylmethyl-2-oxo-ethyl]-amide], the inhibition constant (Ki) was over 5 µM.

For `CC(C)(C)c1ccc(C(=O)N[C@@H](Cc2ccc(O)cc2)C(=O)N2CC[C@@H]3[C@H]2C(=O)CN3C(=O)c2ccccc2)cc1` [Example 346, (3aR,6aS)-N-[(1S)-2-(4-Benzoyl-6-oxo-hexahydro-pyrrolo[3,2-b]pyrrol-1-yl)-1-(4-hydroxybenzyl)-2-oxo-ethyl]-4-tert-butyl-benzamide], the Ki is over 8 µM.

`O=C(N[C@@H](Cc1ccc(O)cc1)C(=O)N1CC[C@@H]2[C@H]1C(=O)CN2C(=O)c1ccccc1)c1cccc2ccccc12` [Example 296, (3aR,6aS)-Naphthalene-1-carboxylic acid [(1S)-2-(4-benzoyl-6-oxo-hexahydro-pyrrolo[3,2-b]pyrrole-1-yl)-1-(4-hydroxybenzyl)-2-oxo-ethyl]-amide] returned a Ki of over 50 µM.

With `CC(C)C[C@H](NC(=O)c1ccc(-c2cccs2)cc1)C(=O)N1CC[C@@H]2[C@H]1C(=O)CN2C(=O)c1ccccc1` [Example 2, (3aR,6aS)-N-[(1S)-1-(4-Benzoyl-6-oxo-hexahydro-pyrrolo[3,2-b]pyrrole-1-carbonyl)-3-methyl-butyl]-4-thiophen-2-yl-benzamide], the Ki is under 0.01 µM.

A word on the Ki: it is a measure of affinity in units of concentration, obtained from inhibition or displacement. A low value points to a stronger hold on the target.

The record behind these values is US20060100431A1, “Biologically active compounds” (Amura Therapeutics Limited, priority 2002, published 2006).
